Tests used:
[1] = test system: gingival collagenolytic enzyme activity of diabetic rats; assay: Collagenolytic enzyme activity in extracts of gingiva from diabetic rats given minocycline; format: in vivo, rat; details: for Gingival Collagenolytic Activity (% C^14-Collagen Degraded): diabetes + oral daily drug
Procedure: Rats were made diabetic chemically with the agent streptozotocin. Some of the diabetic rats (half were administered minocycline orally on a daily basis) were killed 15 days, or 28 days, or 56 days after inducing diabetes and the gingiva were dissected, the tissues were extracted, and the extracts partially purified by ammonium sulfate precipitation. The partially purified enzyme preparation from the gingiva of a group of non-diabetic (control) rats, and the diabetic rats, was incubated at 37° C. in vitro with radiolabeled collagen fibrils to assess collagenolytic ennzyme activity.

[2] = test system: GCF collagenase and gingival disease in diabetic twins; assay: Human gingival crevicular fluid (GCF) study, diabetic twin brothers; format: in vivo; details: 7 days of treatment
Procedure: In a separate study involving humans, gingival crevicular fluid (GCF) samples were collected on filter paper strips inserted into 8 interproximal pockets of selected teeth in the maxillary arch of two twin brothers with juvenile-onset (insulin-dependent) diabetes mellitus. Fluid volume was immediately determined on a modified Periotron (Model 6000, Harco Electronics Ltd., Winnipeg, Canada); then incubated with 10 μl (^3 H-methyl) collagen (20,675 DPM) and 70 μl buffer (50 mM Tris-HCl, pH 7.8, containing 0.2 M sodium chloride and 5 mM calcium chloride). The GCF samples (or reagent blanks or trypsin controls) were incubated at 27° C. for 18 hours with gentle shaking. The reaction was stopped and undigested collagen precipitated by adding 10 μl 0.1 M phenanthroline in dioxane/water (1:1, v/v), 10 μl of nonradioactive methylated carrier collagen (2 mg/ml) in 50 mM Tris-HCl buffer containing 1M NaCl (pH 7.0), and 100 μl dioxane. After mixing, the radiolabeled collagen degradation products were collected by filtration and counted in a liquid scintillation spectrometer (Golub, et. al., 1976, J. Dent. Res., 55, 1049). Using this technique, the reaction blank (no enzyme or GCF added) released about 10% of the total substrate counts; 2-20 ng bacterial collagenase produced a linear increase in the release of radioactive counts from the ^3 H-collagen substrate (the 20 ng level of enzyme degraded 60% of the collagen substrate); and 50 ng trypsin released less than 1% of the counts above blank values. GCF collagenase activity was expressed as units of equivalent activity of vertebrate collagenase (obtained from New England Nuclear, Cat. No. NEK-016); 1 unit was operationally defined as the amount of enzyme that degrades 1 μg of collagen per hour at 27° C.
Four additional GCF samples were collected from other maxillary pockets of the same diabetic twin brothers on filter paper strips, their volume determined (see above), and collagenolytic activity assessed using the same procedure described above but with a different substrate (10 μl of (^3 H-propionate) collagen, NET-660, New England Nuclear Corp., Boston, Mass., 302,000 DPM).
Half of the 12 GCF samples per subject were activated by pretreatment with 1.04 uM trypsin followed by the addition of a 5-fold molar excess of soybean trypsin inhibitor. Samples were selected to be treated or not treated with trypsin by matching them for Gingival Index (Loe and Silness, Acta. Odont. Scand., 21, 533-551 (1967)), GCF flow, and for pocket depth; the clincal parameters (GI, PD) were measured immediately after GCF collection. All measurements were carried out immediately before antibiotic coverage and after 7 days of treatment with either pencillin G (lg. per day; patient three) or the tetracycline minocycline (200 mg/day; patient one).

[3] = test system: synovial tissue collagenolytic activity; assay: Collagenolytic activity in extracts of synovial tissue from patients with rheumatoid arthritis; format: in vivo, human; design: Synovial Tissue Collagenolytic Activity (% C^14-collagen degraded) After Minocycline Treatment / % Reduction by Treatment: concentration or dose not given beside the values
Procedure: In each of three patients, the diseased joint tissue on one side was surgically removed for therapeutic reasons. The three patients were then administered minocycline orally for 10 days and the diseased joint (synovial) tissue on the opposite side was surgically removed (for therapeutic reasons) after the course of minocycline treatment was completed. The tissues were coded, stored frozen, and analyzed double blind to eliminate any bias in the development of the data. The tissues were dried, the lipid removed, and the collagenolytic activity in the diseased joint tissues extracted and concentrated. Aliquots of the extract from each diseased joint were incubated in vitro with radiolabelled collagen fibrils for 72 hours at 37° C. to assess collagen destructive (collagenolytic) enzyme activity.

[4] = molecular target: T1, rat PMNL collagenolytic activity (PMNL collagenase) (Rattus norvegicus, UniProt O88766); assay: Rat PMNL collagenolytic activity in vitro (14C-collagen gel lysis); format: biochemical
T1 construct: An extract of PMNLs was prepared; from tissue; host or cells: extract of peritoneal exudate polymorphonuclear leucocytes of non-diabetic rats, elicited with glycogen
T1 sequence (O88766 102-466): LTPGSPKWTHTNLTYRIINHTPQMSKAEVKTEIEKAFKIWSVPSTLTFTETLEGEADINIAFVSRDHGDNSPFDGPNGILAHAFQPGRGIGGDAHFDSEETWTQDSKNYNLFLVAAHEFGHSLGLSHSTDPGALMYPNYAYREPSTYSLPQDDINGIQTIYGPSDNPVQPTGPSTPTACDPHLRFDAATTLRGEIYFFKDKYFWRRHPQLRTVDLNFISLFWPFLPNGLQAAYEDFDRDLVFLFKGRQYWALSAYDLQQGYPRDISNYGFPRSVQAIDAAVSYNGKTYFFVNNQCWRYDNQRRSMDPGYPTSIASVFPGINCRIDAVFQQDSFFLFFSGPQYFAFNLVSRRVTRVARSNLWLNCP
Procedure: To test the effect of physiologic levels of minocycline (the concentration in human serum, during a therapeutic regimen, is approximately 2 ug/ml; that in the gingival crevicular fluid is 4-5 times greater; Ciancio, et. al., 1980, J. Periodontol., 51, 531-534) on mammalian collagenolytic activity in vitro, peritonealexudate polymorphomuclear leucocytes (PMNLs) were collected from 15 mole (non-diabetic) rats 4 hours after I.P. injection of 0.15% glycogen. An extract of PMNLs was prepared, 250 μl aliquots of this extract were incubated with ^14 C-glycine labeled collagen fibrils for 14 hours at 35° C. (in the presence or absence of minocycline, or EDTA, or additional CaCl2), and collagenolytic activity was measured as described by Nicoll, et al., (Experientia., 37, 315-317).
The techniques used to measure the collagenolytic enzyme activity of gingival tissue in culture, and in polymorphonuclear leucocytes (PMNLs), are those described by Golub, et. al., (J. Dent. Res., 57, 520-525 (197)8) and Nicoll, et. al., (Experimentia, 37, 315-317, (1981)) with minor modifications.

[5] = penicillin G 1 g per day (P. D.) or minocycline 200 mg/day (K. D.)

- Gram-positive and Gram-negative organisms in the pockets [2, 5]: marked reduction in Gram-negative
- effect on PMNL collagenolytic (collagenase) activity, in words ([4]; Table 1): almost complete inhibition
- Collagenolytic Activity: % ^14 C-collagen gel lysed ([4]; Table 1, PMNL extract + 5 μg/ml, control extract 85.5): 12.4%
- Collagenolytic Activity: % ^14 C-collagen gel lysed ([4]; Table 1, PMNL extract + 20 μg/ml + CaCl2 10 mM): 38.5%
- Collagenolytic Activity: % ^14 C-collagen gel lysed ([4]; Table 1, PMNL extract + 20 μg/ml + CaCl2 50 mM): 82.1%
- Collagenolytic Activity: % ^14 C-collagen gel lysed ([4]; Table 1, PMNL extract + 20 μg/ml, control extract 85.5): 8.3%
- Collagenolytic Activity: % ^14 C-collagen gel lyzed ([4]; Table 2, PMNL extract (30 × 10^6 PMNLs per ml) + 20 ug/ml, control extract 39.0): 4.0%
Structure (SMILES): CN(C)c1ccc(O)c2c1C[C@H]1C[C@H]3[C@H](N(C)C)C(O)=C(C(N)=O)C(=O)[C@@]3(O)C(O)=C1C2=O [minocycline, Minocycline]
- % Inhibition of Collagenolytic Activity by Minocycline ([1]; 15 days): 42.5%
- % Inhibition of Collagenolytic Activity by Minocycline ([1]; 28 days): 72.7%
- % Inhibition of Collagenolytic Activity by Minocycline ([1]; 56 days): 77.2%
- Gingival Collagenolytic Activity (% C^14-Collagen Degraded) ([1]; 15 days, untreated diabetic 50.4, control 9.1): 29.0%
- Gingival Collagenolytic Activity (% C^14-Collagen Degraded) ([1]; 28 days, untreated diabetic 63.0, control 9.1): 17.2%
- Gingival Collagenolytic Activity (% C^14-Collagen Degraded) ([1]; 56 days, untreated diabetic 47.8, control 9.1): 10.9%
- GCF flow [2, 5]: significant reductions
- active GCF collagenase [2, 5]: significant reductions
- pocket depth [2, 5]: no decrease
- total GCF collagenase (after trypsin pretreatment) [2, 5]: significant reductions
- Gingival Index (G. I.) ([2]; penicillin G 1 g per day (patient three) or minocycline 200 mg/day (patient one)): significant reductions
- % Reduction by Treatment ([3]; Patient #1): 81.8%
- Synovial Tissue Collagenolytic Activity (% C^14-collagen degraded) After Minocycline Treatment ([3]; Patient #1, oral for 10 days, before treatment 43.0): 7.8%
- % Reduction by Treatment ([3]; Patient #2): 68.8%
- Synovial Tissue Collagenolytic Activity (% C^14-collagen degraded) After Minocycline Treatment ([3]; Patient #2, oral for 10 days, before treatment 41.0): 12.8%
- % Reduction by Treatment ([3]; Patient #3): did not reduce collagenolytic activity much further
- Synovial Tissue Collagenolytic Activity (% C^14-collagen degraded) After Minocycline Treatment ([3]; Patient #3, oral for 10 days, before treatment 18.6): 18.0%
- % Reduction by Treatment ([3]; Patient #3, listed as Minocycline): 3.3%
- reduction of synovial collagenolytic enzyme activity ([3]; patients #1 and 2 (high level of activity)): 69-82%

— US4666897A, “Inhibition of mammalian collagenolytic enzymes by tetracyclines” (Research Foundation of State University, priority 1983, dated 1987)
